# Test results published in patent US6413531B1, “Potentiation of biocide activity using a diethanolamide” (Buckman Laboratories International, Inc., priority 1998, dated 2002).
# Test system: Pseudomonas aeruginosa ("Ps. aeruginosa") ATCC 15442
# Experiment: Antibacterial test, growth/no-growth (MIC) in liquid medium
# Format: cell-based
# Settings: within the concentration range tested, i.e., up to 2000 ppm
# Protocol: The following materials and procedure were used to determine the potentiating effect of a diethanolamide with various biocides.
# (1) Pseudomonas aeruginosa (“Ps. aeruginosa”) ATCC 15442 (a bacterium)
# NaCl, 8.0 g; glucose, 1.0 g; tryptone, 1.0 g; DI water, 1.0 L.
# 5 ml of growth medium were suspended in test tubes, and the culture medium was autoclaved at 121° C. for 20 min. Biocide stock aqueous solutions were added in each tube to give the desired biocide-diethanolamide concentrations in parts per million. No biocide was added to the control tubes. All tubes were inoculated by adding 0.1 ml of inoculum to give a bacterial concentration of about 10^6 cells/ml (10^6 spores/ml for fungal test). After each addition, the tubes were shaken vigorously to mix the contents thoroughly. All inoculated tubes were placed at 37° C. for antibacterial test and at 28° C. for antifungal test. Bacterial growth was checked after 5-7 days and fungal growth was checked after 10-14 days.
# The MIC of each biocide and diethanolamide acting alone and in combination was determined on a growth-no-growth basis. Tables 1-16 present both the lowest concentrations of each biocide and diethanolamide separately for which there was no growth, and the lowest concentration of biocide in combination with diethanolamide for which there was no growth. […]
substance,measurement,value
"(RS)-1- 2-[(2,4-dichlorophenyl)-2-propyl-1,3-dioxalan-2ylmethyl]-1H-1,2,4-triazole [propiconazole]",antibacterial activity,does not have any antibacterial activity
